Experimental data published in PMC8875489, “Pharmaceutical and Safety Profile Evaluation of Novel Selenocompounds with Noteworthy Anticancer Activity” (Pharmaceutics, 2022).

system: not listed separately; assay: Chemical stability in acidic and alkaline environments (TLC-monitored); format: physicochemical; conditions: 2 mg/mL in methanol + 10% HCl 1:1; TLC at 10 min, 1, 2, 3, 24, 48 h
Method: The chemical stability of the new organic selenocompounds was evaluated in two different environments (acidic and alkaline). Firstly, tested selenocompounds were dissolved in pure anhydrous methanol to obtain a stock solution with a concentration of 2 mg/mL. Then, the solution was divided into two equal parts. A 10% solution of HCl was added in 1:1 proportion to the first part, and a 10% solution of NaOH was added to the second part in the same 1:1 proportion. Then, the stability of the tested Se compounds, either in the acidic or in the basic conditions, was TLC-monitored at specific time periods: 10 min and 1, 2, 3, 24, and 48 h. The following eluents were used: (i) methylene chloride for EDA-26, EDA-73, EDA-74, EDA-93, EDA-109, EDA-119, EDA-120, and EDA-122; a mixture of n-hexane and ethyl acetate in a 4:1 ratio for EDA-58; (ii) chloroform for EDA-71 and EDA-A6; and (iii) acetone for EDA-117.
In the next step of the experiments, the chemical stability of 11 selenoesters (EDA-26, EDA-71, EDA-73, EDA-74, EDA-58, EDA-93, EDA-109, EDA-117, EDA-119, EDA-120 and EDA-122) and the selenoanhydride EDA-A6 in acidic and alkaline environments was evaluated by the use of a previously described method. Unfortunately, it was not possible to estimate the chemical stability of the compounds EDA-46, EDA-53, EDA-56, and […] due to their physicochemical properties: they were liquid at room temperature in the form of an oil, which is not miscible with water.

Row | Compound | chemical stability in the acidic environment
1 | COc1cc(OC)cc(C(=O)[Se]CC(=O)C(C)(C)C)c1 [EDA-74, Se-(3,3-dimethyl-2-oxobutyl) 3,5-dimethoxybenzoselenoate] | stable till the end of the experiment (48 h)
2 | O=C(C[Se]C(=O)c1ccccc1)Oc1ccccc1 [EDA-93, phenyl 2-(benzoylselanyl)acetate] | unstable
3 | CC(=O)C[Se]C(=O)c1ccc(Cl)cc1 [EDA-71, Se-(2-oxopropyl) 4-chlorobenzoselenoate] | totally unstable
4 | C[Se]C(=O)c1ccc(C(=O)[Se]C)cc1 [EDA-109, Se,Se-dimethyl benzene-1,4-bis(carboselenoate)] | stable till the end of the analysis (48 h)
5 | C[Se]C(=O)c1cccc(C(=O)[Se]C)c1 [EDA-120, Se,Se-dimethyl benzene-1,3-bis(carboselenoate)] | stable till the end of the analysis (48 h)

same assay, conditions: 2 mg/mL in methanol + 10% NaOH 1:1; TLC at 10 min, 1, 2, 3, 24, 48 h

Row | Compound | chemical stability in the alkaline environment
6 | COc1cc(OC)cc(C(=O)[Se]CC(=O)C(C)(C)C)c1 [EDA-74, Se-(3,3-dimethyl-2-oxobutyl) 3,5-dimethoxybenzoselenoate] | unstable
7 | O=C(C[Se]C(=O)c1ccccc1)Oc1ccccc1 [EDA-93, phenyl 2-(benzoylselanyl)acetate] | unstable
8 | CC(=O)C[Se]C(=O)c1ccc(Cl)cc1 [EDA-71, Se-(2-oxopropyl) 4-chlorobenzoselenoate] | unstable
9 | C[Se]C(=O)c1ccc(C(=O)[Se]C)cc1 [EDA-109, Se,Se-dimethyl benzene-1,4-bis(carboselenoate)] | totally unstable
10 | C[Se]C(=O)c1cccc(C(=O)[Se]C)c1 [EDA-120, Se,Se-dimethyl benzene-1,3-bis(carboselenoate)] | totally unstable

system: Salmonella Typhimurium TA100 strain; assay: not given; conditions: 1 µM; TA100; alert ≥ 2.0
Method: Safety profiles were evaluated using an in vitro microbiological method adapted to the microplate Ames test (384-well microtitration plate), which applies Salmonella enterica serovar Typhimurium bacterial strains (the gold standard in mutagenicity research). The experiment was performed according to a previously described protocol, which is provided in the Supplementary Materials. Briefly, the TA 100 strain (deprived of the ability to synthesize the histidine) was incubated with each tested compound in an exposure medium containing a limited amount of histidine. The reversion events were counted both manually and by means of a microplate reader. Each fold increase bigger than two times the baseline level (≥2.0-fold) was considered to indicate a mutagen alert. The experiments and data analyses were prepared according to the procedure that was previously described by Flückiger-Isler et al.. The assay was performed in triplicate. The positive control selected for the mutagenicity assays was NQNO, which causes genome point mutations; specifically, it promotes G:C → A:T transitions in the Salmonella Typhimurium TA-100 strain and other bacteria such as Vibrio harveyi and Escherichia coli.
In the next step of the studies, the in vitro safety profiles of the tested selenocompounds were evaluated. All compounds were tested with the 384-well plate microfluctuation Ames test. The mutagenic index (MI) was used as the measure of mutagenicity.
1.5. Safety profile evaluation - Ames microplate mutagenicity assay
Safety profile was evaluated by the means of in vitro microbiological methods – adapted to microplate Ames test, which applies Salmonella enterica serovar Typhimurium bacterial strains (the gold standard in mutagenicity research).
1.5.1. Compounds preparation
To evaluate the impact of tested compounds and of references on Salmonella enterica serovar Typhimurium (onwards Salmonella Typhimurium) TA-100 strain growth by means of the Ames test, the compounds or the reference were dissolved in the pure DMSO, to obtain the corresponding 10 mM stock solutions. Working solutions for tested compounds (25 μM and 250 μM concentrations) were prepared before the assay in DMSO.
1.5.2. Microplate Ames mutagenicity assay protocol
Prior to the experiment, Salmonella Typhimurium was cultured overnight (NB-2 liq-uid medium in the presence of 25 μg/mL ampicillin). At the day of the experiment, fresh dilutions of the tested compounds (25 μM and 250 μM), reference compound (methylse-leninic acid) and standard mutagen (4-nitroquinoline-N-oxide at 2.5 μM and 12.5 μM) in DMSO were prepared. The positive control selected for the mutagenicity assays was NQNO, which causes point mutations at the genome. Specifically, it promotes G:C → A:T transitions in Salmonella Typhimurium TA-100 strain and in the other bacteria such as Vib-rio harveyi and Escherichia coli.
The mutagenic potential of the tested derivatives was evaluated by the incubation of the abovementioned bacteria (deprived of the ability to synthesize the histidine) with spe-cific concentrations of the tested compounds (for 90 min in the exposure medium), con-taining a limited amount of histidine (enough to provide approximately 2-3 cell divisions).
The occurrence of reversion events to histidine prototrophy was observed through the bacterial growth in the indicator medium without histidine after 48 h of incubation in temperature of 37° C [45]. The final compound and the mutagenic agent concentrations in each single well of a 384 well plate were 1 μM and 10 μM for the compounds; and 0.1 μM and 0.5 μM for the mutagen. Lastly, both a manual count and a microplate reader were used to obtain the results. The medium control baseline (MCB) was estimated as the mean number of revertants in the medium control plus one standard deviation. Each fold in-crease bigger than two times the baseline level ≥ 2.0 was considered as a mutagen alert.

Row | Compound | Fold Increase over Baseline
11 | COc1cc(OC)cc(C(=O)[Se]CC(=O)C(C)(C)C)c1 [EDA-74, Se-(3,3-dimethyl-2-oxobutyl) 3,5-dimethoxybenzoselenoate] | 0.98
12 | O=C(C[Se]C(=O)c1ccccc1)Oc1ccccc1 [EDA-93, phenyl 2-(benzoylselanyl)acetate] | 1.02
13 | CC(=O)C[Se]C(=O)c1ccc(Cl)cc1 [EDA-71, Se-(2-oxopropyl) 4-chlorobenzoselenoate] | 0.60
14 | C[Se]C(=O)c1ccc(C(=O)[Se]C)cc1 [EDA-109, Se,Se-dimethyl benzene-1,4-bis(carboselenoate)] | 0.55

same assay, conditions: 1 µM; TA100; mutagenic if MI ≥ 2

Row | Compound | MI (mutagenic index)
15 | COc1cc(OC)cc(C(=O)[Se]CC(=O)C(C)(C)C)c1 [EDA-74, Se-(3,3-dimethyl-2-oxobutyl) 3,5-dimethoxybenzoselenoate] | 0.88
16 | O=C(C[Se]C(=O)c1ccccc1)Oc1ccccc1 [EDA-93, phenyl 2-(benzoylselanyl)acetate] | 1.27
17 | CC(=O)C[Se]C(=O)c1ccc(Cl)cc1 [EDA-71, Se-(2-oxopropyl) 4-chlorobenzoselenoate] | 0.54
18 | C[Se]C(=O)c1ccc(C(=O)[Se]C)cc1 [EDA-109, Se,Se-dimethyl benzene-1,4-bis(carboselenoate)] | 0.96
19 | C[Se]C(=O)c1cccc(C(=O)[Se]C)c1 [EDA-120, Se,Se-dimethyl benzene-1,3-bis(carboselenoate)] | 1.24

same assay, conditions: 1 µM; TA100; threshold ≥ 0.99

Row | Compound | B (binomial B value)
20 | COc1cc(OC)cc(C(=O)[Se]CC(=O)C(C)(C)C)c1 [EDA-74, Se-(3,3-dimethyl-2-oxobutyl) 3,5-dimethoxybenzoselenoate] | 0.94
21 | O=C(C[Se]C(=O)c1ccccc1)Oc1ccccc1 [EDA-93, phenyl 2-(benzoylselanyl)acetate] | 0.96
22 | CC(=O)C[Se]C(=O)c1ccc(Cl)cc1 [EDA-71, Se-(2-oxopropyl) 4-chlorobenzoselenoate] | 0.34
23 | C[Se]C(=O)c1ccc(C(=O)[Se]C)cc1 [EDA-109, Se,Se-dimethyl benzene-1,4-bis(carboselenoate)] | 0.07
24 | C[Se]C(=O)c1cccc(C(=O)[Se]C)c1 [EDA-120, Se,Se-dimethyl benzene-1,3-bis(carboselenoate)] | 1.00

same assay, conditions: 10 µM

Row | Compound | cytotoxicity for Salmonella Typhimurium in Ames test
25 | C[Se]C(=O)c1ccc(C(=O)[Se]C)cc1 [EDA-109, Se,Se-dimethyl benzene-1,4-bis(carboselenoate)] | cytotoxic activity was observed

same assay, conditions: 10 µM; TA100

Row | Compound | cytotoxic effect label beside B value
26 | C[Se]C(=O)c1ccc(C(=O)[Se]C)cc1 [EDA-109, Se,Se-dimethyl benzene-1,4-bis(carboselenoate)] | C (data points that are significantly smaller (B ≤ 0.01 (bolded)) than the mean number of spontaneous revertants are labelled C for “cytotoxic effect”)

same assay, conditions: 10 µM; TA100; alert ≥ 2.0

Row | Compound | Fold Increase over Baseline
27 | COc1cc(OC)cc(C(=O)[Se]CC(=O)C(C)(C)C)c1 [EDA-74, Se-(3,3-dimethyl-2-oxobutyl) 3,5-dimethoxybenzoselenoate] | 0.76
28 | O=C(C[Se]C(=O)c1ccccc1)Oc1ccccc1 [EDA-93, phenyl 2-(benzoylselanyl)acetate] | 0.87
29 | CC(=O)C[Se]C(=O)c1ccc(Cl)cc1 [EDA-71, Se-(2-oxopropyl) 4-chlorobenzoselenoate] | 0.89
30 | C[Se]C(=O)c1ccc(C(=O)[Se]C)cc1 [EDA-109, Se,Se-dimethyl benzene-1,4-bis(carboselenoate)] | 0.39

same assay, conditions: 10 µM; TA100; mutagenic if MI ≥ 2

Row | Compound | MI (mutagenic index)
31 | COc1cc(OC)cc(C(=O)[Se]CC(=O)C(C)(C)C)c1 [EDA-74, Se-(3,3-dimethyl-2-oxobutyl) 3,5-dimethoxybenzoselenoate] | 0.69
32 | O=C(C[Se]C(=O)c1ccccc1)Oc1ccccc1 [EDA-93, phenyl 2-(benzoylselanyl)acetate] | 1.08
33 | CC(=O)C[Se]C(=O)c1ccc(Cl)cc1 [EDA-71, Se-(2-oxopropyl) 4-chlorobenzoselenoate] | 0.79
34 | C[Se]C(=O)c1ccc(C(=O)[Se]C)cc1 [EDA-109, Se,Se-dimethyl benzene-1,4-bis(carboselenoate)] | 0.67
35 | C[Se]C(=O)c1cccc(C(=O)[Se]C)c1 [EDA-120, Se,Se-dimethyl benzene-1,3-bis(carboselenoate)] | 1.46

same assay, conditions: 10 µM; TA100; threshold ≥ 0.99

Row | Compound | B (binomial B value)
36 | COc1cc(OC)cc(C(=O)[Se]CC(=O)C(C)(C)C)c1 [EDA-74, Se-(3,3-dimethyl-2-oxobutyl) 3,5-dimethoxybenzoselenoate] | 0.68
37 | O=C(C[Se]C(=O)c1ccccc1)Oc1ccccc1 [EDA-93, phenyl 2-(benzoylselanyl)acetate] | 0.80
38 | CC(=O)C[Se]C(=O)c1ccc(Cl)cc1 [EDA-71, Se-(2-oxopropyl) 4-chlorobenzoselenoate] | 0.98
39 | C[Se]C(=O)c1cccc(C(=O)[Se]C)c1 [EDA-120, Se,Se-dimethyl benzene-1,3-bis(carboselenoate)] | 1.00

same assay, conditions: TA100, 1 and 10 µM

Row | Compound | mutagenicity conclusion in Ames test
40 | C[Se]C(=O)c1cccc(C(=O)[Se]C)c1 [EDA-120, Se,Se-dimethyl benzene-1,3-bis(carboselenoate)] | non-mutagenic
